Here are results for one compound from patent US20240174744A1, “METHODS OF TREATMENT USING PROTEIN BINDERS TO IRHOM2 EPITOPES” (SCIRHOM GMBH, priority 2021, published 2024).

SMILES strings stand for the structures.

This assay concerns PMA-induced release of IL-6R from PBMCs from healthy donors. Kind of assay: ELISA-based IL-6R release assay, PBMCs from healthy donors. The conditions noted are these: Homo sapiens, PBMC; recombinant murine antibodies 1 μg/ml; Batimastat 10 μM; PMA 25 ng/ml, 6 hours. The format is cell-based. Here is the method: In the following study, ELISA-based IL-6R release assays were performed to analyze the inhibitory effects of the antibodies of the present disclosure on PMA-induced release of endogenous IL-6R from primary human material obtained from healthy donors using peripheral blood mononuclear cells (PBMCs).
In brief, on day 1, Nunc black MaxiSorp® 96-well plates (Thermo Fisher Scientific, USA) were coated overnight with 100 μl per well of mouse anti-human IL-6R capture antibody (provided as part of the DuoSet ELISA kit) at 4 μg/ml TBS at 4° C. On day 2, the capture antibody solution was removed and MaxiSorp® plates were blocked with 300 μl per well of TBS, 1% BSA at room temperature for 3 hours. […] Using an infinite M1000 (Tecan Group, Switzerland) microplate reader, the fluorescence of each well was collected at an excitation wavelength of 435 nm and an emission wavelength of 555 nm.
On the technique in general: An ELISA detects its analyte on a solid surface through an enzyme-linked reagent.

Consider `CNC(=O)[C@H](Cc1ccccc1)NC(=O)[C@H](CC(C)C)[C@H](CSc1cccs1)C(=O)NO` [Batimastat], for which the inhibition at 10 µM was 114%.

What is called inhibition is the drop in the measured response relative to a control, in per cent.
